Broadly, the Tmax is the time from dosing to the highest level.

The record followed here is US20230365519A1, “CARBOXYLIC DIARYLTHIAZEPINEAMINES AND USES THEREOF” (Kures, Inc., priority 2020, published 2023).

The structures appear in SMILES notation.

A short description of the series: Brain pharmacokinetics of tianeptine and its 5-carbon metabolite (7i) in mice. The protocol: Experimental Protocol for PK Studies. […] Brain samples were collected from three mice at 0.08, 0.25, 0.5, 1, 2, 4, 8 and 24 h, homogenized using ice-cold phosphate buffer saline (pH 7.4), and stored below -70° C. until analysis. Total homogenate volume was three times the tissue weight. All samples were processed for analysis by protein precipitation using acetonitrile (ACN) and analyzed with a fit-for-purpose LC/MS/MS method (LLOQ - 1.01 ng/mL in brain). Pharmacokinetic parameters were calculated using the non-compartmental analysis tool of Phoenix WinNonlin® (Version 6.3).

Setting [1] is: C57BL/6 mice, single injection of tianeptine 30 mg/kg i.p.
Where [2] appears, read: mice, after tianeptine 30 mg/kg i.p., in words.

Regarding `CN1c2ccccc2C(NCCCCC(=O)O)c2ccc(Cl)cc2S1(=O)=O.Cl` (stereo not drawn) [Compound 7i], under setting [1], the AUClast came out at 5963 ng·h/g, the CL amounted to 78 mL/min/kg, the Tmax stood at 0.5 h and the T½ is listed as 2.33 h. Further, under setting [2], the “brain exposure (as measured by AUC) compared to the parent compound (tianeptine)” value is on record as “greater brain exposure” and the “half-life compared to the parent compound (tianeptine)” value is listed as “significantly longer half-life”.
